System: isolated cardiomyocytes derived from adult rats
Details: electrically stimulated; 0.35 μg/ml (FIG. 5)

SMILES: NCCc1ccc(O)c(O)c1 [inotropin]
- mechanical contractility (cell length changes), optically monitored: obvious increase in contractility

Source: US20060178293A1, “Cardiotonic polypeptides” (priority 2003, published 2006)
